# Measurements taken from US5240961A, “Method of treating reduced insulin-like growth factor and bone loss associated with aging” (priority 1992, dated 1993).
# Several values for one entry are separate records, joined by “and”; a condition that tells them apart may be missing. Equal values may be shown once. Entries after “also recorded” stand apart in the source; their conditions may differ. Read-outs that look alike come from different tables or passages of the source.
# Assays:
# [1] = Serum carnitine levels in aged mice fed L-carnitine; format: in vivo, mouse (BALB/c); conditions: mouse, serum, po, 50 mg/kg/day, 50 mg/kg/day oral, six weeks
# Description: (§1) The present invention is further explained by the following examples which should not be construed by way of limiting the scope of the present invention. In the following examples, serum carnitine levels were determined by the method of R. Parvin et al., Anal. Biochem., vol. 79 (1979) pp. 190-201. Serum IGF-1 concentrations were measured by immunoradiometric assay, for example, by IRMA Kit available from Diagnostic Systems Laboratories, Inc., Webster, Texas. Serum osteocalcin levels were measured according to the method of Grunaberg et al., Meth. Enzymology, vol 107 (1984) 516, and which is embodied in an osteocalcin kit available from Biomedical Technologies, Inc., Stoughton, Mass. All mice used in the animal studies were BALB/c strain which is commercially available.
# (§2) Forty aged mice were separated into two groups. After an initial acclimatizing period of one week, one group was fed a diet with L-carnitine supplementation for six weeks and the other was fed normal, unsupplemented feed (control). Each mouse in the test group was fed a daily oral dose of L-carnitine of about 50 mg/kg of body weight. The average daily food for each mouse was determined by weighing the food initially placed in the food bin and weighing the remaining food. The feed was supplemented with L-carnitine so that each mouse in the test group consumed the test dose (50 mg/kg) of L-carnitine each day. Mouse blood was sampled prior to beginning of the trial (pretreatment), at the end of three weeks, and at six weeks (posttreatment), and was evaluated for serum osteocalcin and carnitine levels.
# serum carnitine [2] = assay: as above; format: in vivo, mouse (BALB/c); conditions: 50 mg/kg/day
# Description: as §1, §2
# serum osteocalcin [3] = assay: Osteocalcin response to L-carnitine in young mice; format: in vivo, mouse (BALB/c)
# Description: as §1
# (§3) Similar tests were performed on six young mice, i.e., 2 months 5 months of age. One group (n=3) was fed a diet with L-carnitine supplementation for three months, the other (n=3) was fed normal, unsupplemented feed (control). Each mouse in the test group was fed a daily oral dose of L-carnitine of about 50 mg/kg of body weight. Mouse blood was sampled prior to beginning of the trial (pretreatment) i.e., at two months of age, and at 5 months of age, and was evaluated for serum osteocalcin and carnitine levels.
# [4] = Serum carnitine levels in young mice fed L-carnitine; format: in vivo, mouse (BALB/c); conditions: mouse, po, 50 mg/kg/day, 50 mg/kg/day oral
# Description: as §1, §3
# serum osteocalcin [5] = assay: Comparative effects of L-carnitine, acetyl carnitine and γ-butyrobetaine on serum osteocalcin in adult mice; format: in vivo, mouse (BALB/c male); conditions: for Osteocalcin: actual intake estimated about half
# Description: as §1
# Tests were performed to compare the effects on serum osteocalcin of diet supplementation with L-carnitine, its precursor, γ-butyrobetaine (available from Aldrich Chemical Co.) and one of its metabolites, acetylcarnitine (available from Life Science Resources, Milwaukee, Wis. 53223). Twenty adult mice, i.e., three months of age, (BALB/c male mice) were divided into seven groups. Each of the groups was fed diets as indicated hereinbelow for twelve weeks. One group (n=3) was fed a diet with L-carnitine supplementation at a dose of 50 mg/kg of body weight each day, while the second group (n=3) was fed L-carnitine at a daily dose of about 100 mg/kg. The third group (n=2) was fed a diet with acetylcarnitine supplementation at a daily dose of 50 mg/kg, while the fourth group (n=3) was fed a daily dose of 100 mg/kg of this compound. The fifth group (n=2) was fed a daily dose of 50 mg/kg of γ-butyrobetaine supplementation,while the sixth group was fed a daily dose of 100 mg/kg of γ-butyrobetaine. The seventh group (n=4) was fed normal, unsupplemented feed (control). Mouse blood was sampled prior to beginning of the trial (pretreatment), at six weeks, and at the end of the trial (twelve weeks). The samples were evaluated for serum osteocalcin levels at six and twelve weeks. Total carnitine was determined at twelve weeks.
# serum IGF-1 [6] = assay: IGF-1 response to L-carnitine supplementation in healthy adults over 60 (Example 4); format: in vivo, human; conditions: three months
# Description: as §1
# (§4) Seven adults from Example 3 agreed to receive a daily dosage of L-carnitine of 2 g/day, self-administered orally, for three months. Doses were administered four times daily, and each dose consisted of two 250 mg tablets. Of the seven individuals, two individuals dropped out of the study due to unrelated illness; thus, five remained in the study to completion. The following were evaluated by pretreatment and posttreatment comparisons: serum carnitine and serum IGF-1 by known methods, and bone mineral contents by bone scan of thoracic region, i.e., thoracic vertebrae, on a NORLAND scanner.
# [7] = Serum carnitine after oral L-carnitine in healthy adults over 60 (Example 4); format: in vivo, human; conditions: human, serum, po, 2 g/day, individual subjects, 2 g/day oral, three months
# Description: as §1, §4
# serum carnitine [8] = assay: as above; format: in vivo, human; conditions: individual subjects, 2 g/day oral, three months; for concentration: 131400 min
# Description: as §1, §4
# serum IGF-1 [9] = assay: Serum IGF-1 after oral L-carnitine, double-blind study in patients over 60 (Example 5); format: in vivo, human; conditions: for IGF-1: individual subjects 010-019, 2 g/day oral; for average serum IGF-1: treatment group average
# Description: as §1
# (§5) Nineteen patients (over age 60) were enrolled in a preliminary double-blindstudy to establish the effect of oral L-carnitine treatment on serum IGF-1 and osteocalcin levels. Baseline, i.e., pretreatment, levels of serum IGF-1, osteocalcin and carnitine were measured by known methods. The patients were divided into two groups, control (n=9; subjects 001-009 in Table 5 below) and treatment (n=10; subjects 010-019 in Table 5 below). The treatment group received a daily dosage of 2 g of L-carnitine orally, self-administered, in four separate doses of two 250 mg tablets taken four times per day, for twelve weeks. The control group were given placebo, e.g., simple sugar. Serum samples were drawn every four weeks, and serum carnitine, IGF-1 and osteocalcin were determined.
# serum osteocalcin [10] = assay: Serum osteocalcin after oral L-carnitine, double-blind study in patients over 60 (Example 5); format: in vivo, human; conditions: for Osteocalcin: individual subjects 010-019, 2 g/day oral; for average serum osteocalcin: treatment group average
# Description: as §1, §5
# [11] = read-out: Serum Carnitine, Free
# [12] = read-out: Serum Carnitine, Total
# [13] = read-out: Carnitine, Free, posttreatment
# [14] = read-out: Carnitine, Total, posttreatment
structure (smiles),measurement,setting,value
C[N+](C)(C)C[C@H](O)CC(=O)[O-] [L-carnitine],concentration at 1008 h,[1]; [11],57 ± 9.7 µM
same,concentration at 1008 h,[1]; [12],80.2 ± 9.5 µM
same,carnitine levels vs control group,serum carnitine [2],higher carnitine levels than the control group
same,Osteocalcin,"serum osteocalcin [3]; 5 mos., 50 mg/kg/day oral for three months",256 ng/mL
same,osteocalcin vs control,"serum osteocalcin [3]; five months, 50 mg/kg/day",maintained a higher level of osteocalcin at five months
same,concentration at 2190 h,[4]; [11],60.2 µM
same,concentration at 2190 h,[4]; [12],84.2 µM
same,"significance of difference in osteocalcin vs control (p, student's t test)",serum osteocalcin [5]; 50 mg/kg/day,< 0.01
same,Osteocalcin,"serum osteocalcin [5]; 50 mg/kg/day, 6 wks",151 ng/mL and 151 ± 4 ng/mL
same,Osteocalcin,"serum osteocalcin [5]; 50 mg/kg/day, 12 wks",153 ng/mL
same,"significance of difference in osteocalcin vs control (p, student's t test)",serum osteocalcin [5]; 100 mg/kg/day,< 0.05
same,Osteocalcin,"serum osteocalcin [5]; 100 mg/kg/day, 6 wks",199 ng/mL and 199 ± 7 ng/mL
same,Osteocalcin,"serum osteocalcin [5]; 100 mg/kg/day, 12 wks",115 ng/mL
same,effect on osteocalcin,"serum osteocalcin [5]; adult mice, 50 and 100 mg/kg/day",stimulate osteocalcin production in adult mice; also recorded: maintained osteocalcin blood levels
same,"significance of IGF-1 increase (p, paired comparisons)",serum IGF-1 [6]; 2 g/day oral,≤ 0.05
same,"IGF-1, posttreatment","serum IGF-1 [6]; individual subjects 001-005, 2 g/day oral",396 ng/mL and 280 ng/mL and 148 ng/mL and 270 ng/mL and 264 ng/mL
same,mean IGF-1 after treatment,"serum IGF-1 [6]; mean, 2 g/day oral, pretreatment mean 170",272 ng/mL
same,concentration at 2190 h,[7]; [13],77.2 µM
same,concentration at 2190 h,[7]; [14],102 µM
same,concentration,serum carnitine [8]; [13],57 µM and 55.4 µM and 38.6 µM and 44.8 µM
same,concentration,serum carnitine [8]; [14],70.7 µM and 68.9 µM and 54.7 µM and 73.4 µM
same,"Carnitine E/F, posttreatment",serum carnitine [8]; ratio esterified/free,0.32 and 0.24 and 0.42 and 0.64
same,"IGF-1 vs control at eight and twelve weeks, significance",serum IGF-1 [9]; eight and twelve weeks,just below significance
same,correlation between pretreatment IGF-1 and increase in IGF-1,"serum IGF-1 [9]; five treated patients with pretreatment IGF-1 under 200 ng/ml, four weeks",-0.654
same,serum IGF-1 after treatment,"serum IGF-1 [9]; four, eight and twelve week intervals, 1 unit=240 ng",above 500 U/L
same,IGF-1,serum IGF-1 [9]; 4 weeks,118 ng/mL and 192 ng/mL and 62 ng/mL and 213 ng/mL and 305 ng/mL and 318 ng/mL and 185 ng/mL and 178 ng/mL and 244 ng/mL and 173 ng/mL
same,IGF-1,serum IGF-1 [9]; 8 weeks,147 ng/mL and 197 ng/mL and 248 ng/mL and 157 ng/mL and 329 ng/mL and 201 ng/mL and 163 ng/mL and 168 ng/mL
same,IGF-1,serum IGF-1 [9]; 12 weeks,108 ng/mL and 157 ng/mL and 179 ng/mL and 260 ng/mL and 185 ng/mL and 207 ng/mL
same,average serum IGF-1,serum IGF-1 [9]; eight weeks,200.8 ng/mL
same,average serum IGF-1,serum IGF-1 [9]; four weeks,214.0 ng/mL
same,average serum IGF-1,serum IGF-1 [9]; twelve weeks,193.7 ng/mL
same,IGF-1 response,serum IGF-1 [9]; twelve week test period,"increased in the carnitine treatment group; also recorded: the lower the baseline level of IGF-1, the greater the increase in IGF-1; also recorded: restored and maintained IGF-1 levels at the normal range"
same,"osteocalcin vs control, significance","serum osteocalcin [10]; 4, 8 and 12 weeks",just below significance
same,Osteocalcin,serum osteocalcin [10]; 4 weeks,11.8 ng/mL and 13.6 ng/mL and 7.4 ng/mL and 11.5 ng/mL and 7.9 ng/mL and 10.4 ng/mL and 11.6 ng/mL and 3.6 ng/mL and 5.9 ng/mL
same,Osteocalcin,serum osteocalcin [10]; 8 weeks,11.9 ng/mL and 10.2 ng/mL and 7.0 ng/mL and 10.8 ng/mL and 9.0 ng/mL and 11.0 ng/mL and 2.4 ng/mL and 4.9 ng/mL
same,Osteocalcin,serum osteocalcin [10]; 12 weeks,9.3 ng/mL and 11.8 ng/mL and 8.7 ng/mL and 7.0 ng/mL and 9.1 ng/mL and 11.4 ng/mL and 6.5 ng/mL
same,average serum osteocalcin,serum osteocalcin [10]; eight weeks,8.4 ng/mL
same,average serum osteocalcin,serum osteocalcin [10]; four weeks,9.2 ng/mL
same,average serum osteocalcin,serum osteocalcin [10]; twelve weeks,9.1 ng/mL
